Data reported in ChEMBL document CHEMBL1944578, “Synthesis and anticonvulsant activity of novel 2,6-diketopiperazine derivatives. Part 2: Perhydropyrido[1,2-a]pyrazines” (Eur J Med Chem, 2012).
Activity calls are given as the source filed them. No cut-off for these calls is given here.

Key:
Mus musculus [1] = experiment: Anticonvulsant activity in Carworth farms No.1 albino mouse assessed as protection against subcutaneous metrazole-induced seizures at 30 mg/kg, ip measured after 4 hrs; type: functional, organism-based; design: dose 30 mg/kg
Mus musculus [2] = experiment: Neurotoxicity in Carworth farms No.1 albino mouse assessed as neurological impairment at 100 mg/kg, ip measured after 0.5 hrs; type: toxicity, organism-based; design: dose 100 mg/kg, route intraperitoneal; conditions: in vivo
Mus musculus [3] = experiment: Anticonvulsant activity in Carworth farms No.1 albino mouse assessed as protection against maximum electroshock at 100 mg/kg, ip measured after 0.5 hrs; type: functional, organism-based; design: dose 100 mg/kg
Mus musculus [4] = experiment: Anticonvulsant activity in Carworth farms No.1 albino mouse assessed as protection against subcutaneous metrazole-induced seizures at 300 mg/kg, ip measured after 4 hrs; type: functional, organism-based; design: dose 300 mg/kg
Mus musculus [5] = experiment: Anticonvulsant activity in Carworth farms No.1 albino mouse assessed as protection against maximum electroshock at 30 mg/kg, ip measured after 4 hrs; type: functional, organism-based; design: dose 30 mg/kg
Mus musculus [6] = experiment: Neurotoxicity in Carworth farms No.1 albino mouse assessed as neurological impairment at 100 mg/kg, ip measured after 1 hr; type: toxicity, organism-based; design: dose 100 mg/kg, route intraperitoneal; conditions: in vivo
Rattus norvegicus [7] = experiment: Anticonvulsant activity in Sprague-Dawley rat assessed as protection against pilocarpine-induced status at 900 mg/kg, ip measured after 0.5 hrs; type: functional, organism-based; design: dose 900 mg/kg
Rattus norvegicus [8] = experiment: Neurotoxicity in Sprague-Dawley rat assessed as neurological impairment at 30 mg/kg, po measured after 1 hr; type: toxicity, organism-based; design: dose 30 mg/kg, route oral; conditions: in vivo
Rattus norvegicus [9] = experiment: Toxicity in Sprague-Dawley rat assessed as body weight change in unprotected animals at 900 mg/kg, ip measured after 0.5 hrs; type: organism-based; design: dose 900 mg/kg, route intraperitoneal; conditions: in vivo
Rattus norvegicus [10] = experiment: Neurotoxicity in Sprague-Dawley rat assessed as neurological impairment at 30 mg/kg, po measured after 2 hrs; type: toxicity, organism-based; design: dose 30 mg/kg, route oral; conditions: in vivo
Mus musculus [11] = experiment: Anticonvulsant activity in Carworth farms No.1 albino mouse assessed as protection against subcutaneous metrazole-induced seizures at 30 mg/kg, ip measured after 0.5 hrs; type: functional, organism-based; design: dose 30 mg/kg
Rattus norvegicus [12] = experiment: Anticonvulsant activity in Sprague-Dawley rat assessed as protection against maximum electroshock at 30 mg/kg, po measured after 0.25 hrs; type: functional, organism-based; design: dose 30 mg/kg
Mus musculus [13] = experiment: Anticonvulsant activity in ip dosed Carworth farms No.1 albino mouse assessed as protection against 6 Hz electric current-induced seizure measured after 0.25 hrs; type: functional
Mus musculus [14] = experiment: Anticonvulsant activity in Carworth farms No.1 albino mouse assessed as protection against maximum electroshock at 30 mg/kg, ip measured after 0.5 hrs; type: functional, organism-based; design: dose 30 mg/kg
Mus musculus [15] = experiment: Anticonvulsant activity in Carworth farms No.1 albino mouse assessed as protection against subcutaneous metrazole-induced seizures at 300 mg/kg, ip measured after 0.5 hrs; type: functional, organism-based; design: dose 300 mg/kg
Mus musculus [16] = experiment: Anticonvulsant activity in Carworth farms No.1 albino mouse assessed as protection against maximum electroshock at 300 mg/kg, ip measured after 4 hrs; type: functional, organism-based; design: dose 300 mg/kg
Mus musculus [17] = experiment: Neurotoxicity in Carworth farms No.1 albino mouse assessed as neurological impairment at 100 mg/kg, ip measured after 4 hrs; type: toxicity, organism-based; design: dose 100 mg/kg, route intraperitoneal; conditions: in vivo
Rattus norvegicus [18] = experiment: Anticonvulsant activity in Sprague-Dawley rat assessed as protection against maximum electroshock at 30 mg/kg, po measured after 0.5 hrs; type: functional, organism-based; design: dose 30 mg/kg
Mus musculus [19] = experiment: Anticonvulsant activity in Carworth farms No.1 albino mouse assessed as protection against maximum electroshock at 100 mg/kg, ip measured after 4 hrs; type: functional, organism-based; design: dose 100 mg/kg
Mus musculus [20] = experiment: Neurotoxicity in Carworth farms No.1 albino mouse assessed as neurological impairment at 300 mg/kg, ip measured after 4 hrs; type: toxicity, organism-based; design: dose 300 mg/kg, route intraperitoneal; conditions: in vivo
Mus musculus [21] = experiment: Anticonvulsant activity in Carworth farms No.1 albino mouse assessed as protection against subcutaneous metrazole-induced seizures at 100 mg/kg, ip measured after 4 hrs; type: functional, organism-based; design: dose 100 mg/kg
Mus musculus [22] = species on record: Mus musculus; experiment: Anticonvulsant activity in electric shock-induced Carworth farms No.1 albino mouse assessed as time of peak effect; type: functional
Mus musculus [23] = experiment: Anticonvulsant activity in Carworth farms No.1 albino mouse assessed as protection against 6 Hz electric current-induced seizure at 100 mg/kg, ip measured after 0.25 hrs; type: functional, organism-based; design: dose 100 mg/kg
Rattus norvegicus [24] = experiment: Anticonvulsant activity in Sprague-Dawley rat assessed as protection against maximum electroshock at 30 mg/kg, po measured after 2 hrs; type: functional, organism-based; design: dose 30 mg/kg
Rattus norvegicus [25] = experiment: Toxicity in Sprague-Dawley rat assessed as mortality at 900 mg/kg, ip measured after 0.5 hrs; type: organism-based; design: dose 900 mg/kg, route intraperitoneal; conditions: in vivo
Mus musculus [26] = experiment: Anticonvulsant activity in Carworth farms No.1 albino mouse assessed as protection against subcutaneous metrazole-induced seizures at 100 mg/kg, ip measured after 0.5 hrs; type: functional, organism-based; design: dose 100 mg/kg
Mus musculus [27] = experiment: Anticonvulsant activity in Carworth farms No.1 albino mouse assessed as protection against maximum electroshock at 300 mg/kg, ip measured after 0.5 hrs; type: functional, organism-based; design: dose 300 mg/kg
Rattus norvegicus [28] = experiment: Neurotoxicity in Sprague-Dawley rat assessed as neurological impairment at 30 mg/kg, po measured after 0.25 hrs; type: toxicity, organism-based; design: dose 30 mg/kg, route oral; conditions: in vivo
Rattus norvegicus [29] = experiment: Neurotoxicity in Sprague-Dawley rat assessed as sedation at 900 mg/kg, ip measured after 0.5 hrs; type: toxicity, organism-based; design: dose 900 mg/kg, route intraperitoneal; conditions: in vivo
Mus musculus [30] = experiment: Neurotoxicity in Carworth farms No.1 albino mouse assessed as neurological impairment at 100 mg/kg, ip measured after 2 hr; type: toxicity, organism-based; design: dose 100 mg/kg, route intraperitoneal; conditions: in vivo
Mus musculus [31] = experiment: Anticonvulsant activity in Carworth farms No.1 albino mouse assessed as protection against 6 Hz electric current-induced seizure at 100 mg/kg, ip measured after 2 hrs; type: functional, organism-based; design: dose 100 mg/kg
Rattus norvegicus [32] = experiment: Neurotoxicity in Sprague-Dawley rat assessed as neurological impairment at 30 mg/kg, po measured after 0.5 hrs; type: toxicity, organism-based; design: dose 30 mg/kg, route oral; conditions: in vivo
Mus musculus [33] = experiment: Anticonvulsant activity in Carworth farms No.1 albino mouse assessed as protection against 6 Hz electric current-induced seizure at 100 mg/kg, ip measured after 0.5 hrs; type: functional, organism-based; design: dose 100 mg/kg
Mus musculus [34] = experiment: Neurotoxicity in Carworth farms No.1 albino mouse assessed as neurological impairment at 30 mg/kg, ip measured after 0.5 hrs; type: toxicity, organism-based; design: dose 30 mg/kg, route intraperitoneal; conditions: in vivo
Mus musculus [35] = experiment: Neurotoxicity in Carworth farms No.1 albino mouse assessed as neurological impairment at 100 mg/kg, ip measured after 0.25 hrs; type: toxicity, organism-based; design: dose 100 mg/kg, route intraperitoneal; conditions: in vivo
Mus musculus [36] = experiment: Neurotoxicity in Carworth farms No.1 albino mouse assessed as neurological impairment at 30 mg/kg, ip measured after 4 hrs; type: toxicity, organism-based; design: dose 30 mg/kg, route intraperitoneal; conditions: in vivo
Rattus norvegicus [37] = experiment: Anticonvulsant activity in Sprague-Dawley rat assessed as protection against maximum electroshock at 30 mg/kg, po measured after 1 hr; type: functional, organism-based; design: dose 30 mg/kg
Mus musculus [38] = experiment: Anticonvulsant activity in Carworth farms No.1 albino mouse assessed as protection against 6 Hz electric current-induced seizure at 100 mg/kg, ip measured after 1 hrs; type: functional, organism-based; design: dose 100 mg/kg
Mus musculus [39] = experiment: Anticonvulsant activity in Carworth farms No.1 albino mouse assessed as protection against 6 Hz electric current-induced seizure at 100 mg/kg, ip measured after 4 hrs; type: functional, organism-based; design: dose 100 mg/kg
Rattus norvegicus [40] = experiment: Anticonvulsant activity in Sprague-Dawley rat assessed as protection against maximum electroshock at 30 mg/kg, po measured after 4 hrs; type: functional, organism-based; design: dose 30 mg/kg
Rattus norvegicus [41] = experiment: Neurotoxicity in Sprague-Dawley rat assessed as neurological impairment at 30 mg/kg, po measured after 4 hrs; type: toxicity, organism-based; design: dose 30 mg/kg, route oral; conditions: in vivo
Rattus norvegicus [42] = experiment: Toxicity in Sprague-Dawley rat assessed as body weight change in protected animals at 900 mg/kg, ip measured after 0.5 hrs; type: organism-based; design: dose 900 mg/kg, route intraperitoneal; conditions: in vivo
Mus musculus [43] = experiment: Neurotoxicity in Carworth farms No.1 albino mouse assessed as neurological impairment at 300 mg/kg, ip measured after 0.5 hrs; type: toxicity, organism-based; design: dose 300 mg/kg, route intraperitoneal; conditions: in vivo

## O=C1NC(=O)[C@@H](c2ccccc2)N2CCCC[C@H]12
Mus musculus [1]
  Activity: inactive
Mus musculus [2]
  Activity: Non-toxic
Mus musculus [3]
  Activity: inactive
Mus musculus [4]
  Activity: inactive
Mus musculus [5]
  Activity: inactive
Mus musculus [6]
  Activity: Non-toxic
Rattus norvegicus [7]
  Activity: Active
Rattus norvegicus [8]
  Activity: Non-toxic
Rattus norvegicus [9]
  Activity: -20 g
Rattus norvegicus [10]
  Activity: Non-toxic
Mus musculus [11]
  Activity: inactive
Rattus norvegicus [12]
  Activity: inactive
Mus musculus [13]
  ED50: 38.2 mg/kg
Mus musculus [14]
  Activity: inactive
Mus musculus [15]
  Activity: inactive
Mus musculus [16]
  Activity: inactive
Mus musculus [17]
  Activity: Non-toxic
Rattus norvegicus [18]
  Activity: inactive
Mus musculus [19]
  Activity: inactive
Mus musculus [20]
  Activity: Non-toxic
Mus musculus [21]
  Activity: inactive
Mus musculus [22]
  Time: 0.25 h
Mus musculus [23]
  Activity: Active
Rattus norvegicus [24]
  Activity: inactive
Rattus norvegicus [25]
  Activity: Toxic
Mus musculus [26]
  Activity: inactive
Mus musculus [27]
  Activity: inactive
Rattus norvegicus [28]
  Activity: Non-toxic
Rattus norvegicus [29]
  Activity: Toxic
Mus musculus [30]
  Activity: Non-toxic
Mus musculus [31]
  Activity: Active
Rattus norvegicus [32]
  Activity: Non-toxic
Mus musculus [33]
  Activity: Active
Mus musculus [34]
  Activity: Non-toxic
Mus musculus [35]
  Activity: Non-toxic
Mus musculus [36]
  Activity: Non-toxic
Rattus norvegicus [37]
  Activity: inactive
Mus musculus [38]
  Activity: Active
Mus musculus [39]
  Activity: inactive
Rattus norvegicus [40]
  Activity: Active
Rattus norvegicus [41]
  Activity: Non-toxic
Rattus norvegicus [42]
  Activity: -17.5 g
Mus musculus [43]
  Activity: Non-toxic
